These results are taken from patent US20070036717A1, “Chemoradiotherapy with TS-1/camptothecins” (The Kitasato Gakuen Foundation, priority 2005, published 2007).

This data set can be described thus: Adverse reactions (NCI-CTC Version 2.0), maximum tolerated and recommended dose of CPT-11. The data set is classed as in vivo, human patients. Conditions: with TS-1 80 mg/m^2/day and radiation 45 Gy. As to the method: A Phase I/II clinical study of preoperative chemoradiotherapy with TS-1/CPT-11 was conducted to estimate the maximum tolerated dose (MTD) and recommended dose (RD) of CPT-11. The subjects had cancer of the rectum (excluding the rectosigmoid (Rs)) with a preoperative diagnosis of T3′ (tumors showing invasion through the muscularis propria into the subserosa, or into the nonperitonealized pericolic or perirectal tissues) or T4′ (tumors perforating the visceral peritoneum and/or directly invading other organs or structures), and N0 to N3′. Response rates and safety (percentage of adverse reactions and percentage of complications) were also evaluated with RD administration. (2) Subject selection
Level 1 (CPT-11, 40 mg/m^2) was the starting dose, and dose was titrated until the maximum tolerated dose could be estimated. […]
After the level of the maximum tolerated dose was confirmed, the recommended dose was determined by reducing the 10 mg/m^2 (one level) increments.
Maximum tolerated dose was determined on the basis of the adverse reactions observed during the first week after completing chemotherapy. (Maximum tolerated dose was evaluated in the modality of coadministration with radiation.)
Side effects were evaluated according to the National Cancer Institute Common Toxicity Criteria (Version 2.0; NCI-CTC). Effects not on the NCI-CTC form were scored on the following five-grade scale.

Where a name gives a salt, the structure may show the parent alone.

As for `CCc1c2c(nc3ccc(OC(=O)N4CCC(N5CCCCC5)CC4)cc13)-c1cc3c(c(=O)n1C2)COC(=O)[C@]3(O)CC` [CPT-11, (4S)-4a, 11-diethyl-4β-hydroxy-9-[[4-(piperidin-1-yl)piperidin-1-yl]carbonyloxy]1H-pyrano[3′,4′:6,7]indolizino[1,2-b]quinoline-3,14-(4H,12H)dione hydrochloride salt], the “final recommended dose of CPT-11” value is on record as 80 mg/m^2.
